US20210346329A1, “TCA CYCLE INTERMEDIATES AND METHODS OF USE THEREOF” (IMBRIA PHARMACEUTICALS, INC., priority 2018, published 2021)

Assay: Tissue distribution of radioactivity (whole-body sections, phosphor imaging, image densitometry)
Settings: IV 10 mg/kg
Protocol: The plasma-time course, routes and rates of excretion, and tissue distribution of radioactivity following a single oral dose of ^14C-labeled citrate or single oral dose of ^14C-labeled succinate were analyzed in rats.
CD® rats were obtained from Charles River Laboratories. Animals were 9-11 weeks in age at beginning of study.
Animals given intravenous ^14C-succinate were not kept in a fasting state. ^14C-succinate was administered by tail vein injection.
At 0.5, 1, 2, 4, 8, and 24 hours post-dose, after terminal blood collections, euthanized animals were frozen in a hexane/dry ice bath and embedded in a 5% carboxymethylcellulose matrix according to MPI Research SOP IMG-23.
Sections of approximately 30 μm thickness were taken in the sagittal plane. Appropriate sections selected at various levels of interest in the block were collected to encompass the following tissues, organs, and biological fluids, where possible: adrenal gland, bladder and contents (urine), blood (cardiac), bone, bone marrow, brain, epididymis, eye, fat (brown), fat (white), heart, kidney, large intestine/cecum and contents, liver, lung, muscle, pancreas, prostate/uterus, salivary glands, skin, small intestine and contents, spleen, stomach and contents, testes/ovaries, thymus, thyroid, and mesenteric lymph nodes.
Quantification, relative to the calibration standards, was performed by image densitometry using MCID™ image analysis software according to MPI Research SOP IMG-24. A standard curve was constructed from the integrated response (MDC/mm^2) and the nominal concentrations of the [^14C]calibration standards. The concentrations of radioactivity were expressed as μCi/g and converted to μg or ng equivalents of [^14C]Test Article per gram sample (ng-eq/g or μg-eq/g) using the specific activity of administered [^14C]Test Article dose formulation. A lower limit of quantification (LLOQ) was applied to the data. The LLOQ was determined using the radioactive concentration of the lowest calibration standard used to generate a calibration curve divided by the specific activity of the dose formulation (μCi/mg). Artifacts, such as those produced by dislodged contents of the alimentary canal, were excluded from analysis during image analysis.

O=C(O)CCC(=O)O [^14C-succinate]
Radioactivity in tissue (Bone marrow, 0.5 Hour): 1314 ng Equivalents test article/g | Radioactivity in tissue (Bone marrow, 1 Hour): 1750 ng Equivalents test article/g | Radioactivity in tissue (Bone marrow, 2 Hours): 1398 ng Equivalents test article/g | Radioactivity in tissue (Bone marrow, 4 Hours): 1419 ng Equivalents test article/g | Radioactivity in tissue (Bone marrow, 8 Hours): 1019 ng Equivalents test article/g | Radioactivity in tissue (Bone marrow, 24 Hours): 769 ng Equivalents test article/g | Radioactivity in tissue (Bone, 0.5 Hour): 3128 ng Equivalents test article/g | Radioactivity in tissue (Bone, 1 Hour): 3200 ng Equivalents test article/g | Radioactivity in tissue (Bone, 2 Hours): 1989 ng Equivalents test article/g | Radioactivity in tissue (Bone, 4 Hours): 2330 ng Equivalents test article/g | Radioactivity in tissue (Bone, 8 Hours): 2042 ng Equivalents test article/g | Radioactivity in tissue (Bone, 24 Hours): 1322 ng Equivalents test article/g | Radioactivity in tissue (Cecum contents, 0.5 Hour): 540 ng Equivalents test article/g | Radioactivity in tissue (Cecum contents, 1 Hour): 882 ng Equivalents test article/g | Radioactivity in tissue (Cecum contents, 2 Hours): 757 ng Equivalents test article/g | Radioactivity in tissue (Cecum contents, 4 Hours): 750 ng Equivalents test article/g | Radioactivity in tissue (Cecum contents, 8 Hours): 806 ng Equivalents test article/g | Radioactivity in tissue (Cecum contents, 24 Hours): BLQ (BLQ: Below limit of quantitation (<320 ng equivalents test article/g).) | Radioactivity in tissue (Cecum, 0.5 Hour): BLQ (BLQ: Below limit of quantitation (<320 ng equivalents test article/g).) | Radioactivity in tissue (Cecum, 1 Hour): BLQ (BLQ: Below limit of quantitation (<320 ng equivalents test article/g).) | Radioactivity in tissue (Cecum, 2 Hours): BLQ (BLQ: Below limit of quantitation (<320 ng equivalents test article/g).) | Radioactivity in tissue (Cecum, 4 Hours): BLQ (BLQ: Below limit of quantitation (<320 ng equivalents test article/g).) | Radioactivity in tissue (Cecum, 8 Hours): BLQ (BLQ: Below limit of quantitation (<320 ng equivalents test article/g).) | Radioactivity in tissue (Cecum, 24 Hours): BLQ (BLQ: Below limit of quantitation (<320 ng equivalents test article/g).) | Radioactivity in tissue (Cerebellum, 0.5 Hour): 709 ng Equivalents test article/g | Radioactivity in tissue (Cerebellum, 1 Hour): 847 ng Equivalents test article/g | Radioactivity in tissue (Cerebellum, 2 Hours): 529 ng Equivalents test article/g | Radioactivity in tissue (Cerebellum, 4 Hours): 503 ng Equivalents test article/g | Radioactivity in tissue (Cerebellum, 8 Hours): BLQ (BLQ: Below limit of quantitation (<320 ng equivalents test article/g).) | Radioactivity in tissue (Cerebellum, 24 Hours): BLQ (BLQ: Below limit of quantitation (<320 ng equivalents test article/g).) | Radioactivity in tissue (Cerebrum, 0.5 Hour): 596 ng Equivalents test article/g | Radioactivity in tissue (Cerebrum, 1 Hour): 853 ng Equivalents test article/g | Radioactivity in tissue (Cerebrum, 2 Hours): 477 ng Equivalents test article/g | Radioactivity in tissue (Cerebrum, 4 Hours): 543 ng Equivalents test article/g | Radioactivity in tissue (Cerebrum, 8 Hours): 348 ng Equivalents test article/g | Radioactivity in tissue (Cerebrum, 24 Hours): BLQ (BLQ: Below limit of quantitation (<320 ng equivalents test article/g).) | Radioactivity in tissue (Epididymis, 0.5 Hour): 699 ng Equivalents test article/g | Radioactivity in tissue (Epididymis, 1 Hour): 785 ng Equivalents test article/g | Radioactivity in tissue (Epididymis, 2 Hours): 442 ng Equivalents test article/g | Radioactivity in tissue (Epididymis, 4 Hours): BLQ (BLQ: Below limit of quantitation (<320 ng equivalents test article/g).) | Radioactivity in tissue (Epididymis, 8 Hours): BLQ (BLQ: Below limit of quantitation (<320 ng equivalents test article/g).) | Radioactivity in tissue (Epididymis, 24 Hours): BLQ (BLQ: Below limit of quantitation (<320 ng equivalents test article/g).) | Radioactivity in tissue (Eye, 0.5 Hour): 569 ng Equivalents test article/g | Radioactivity in tissue (Eye, 1 Hour): 584 ng Equivalents test article/g | Radioactivity in tissue (Eye, 2 Hours): 371 ng Equivalents test article/g | Radioactivity in tissue (Eye, 4 Hours): 413 ng Equivalents test article/g | Radioactivity in tissue (Eye, 8 Hours): BLQ (BLQ: Below limit of quantitation (<320 ng equivalents test article/g).) | Radioactivity in tissue (Eye, 24 Hours): BLQ (BLQ: Below limit of quantitation (<320 ng equivalents test article/g).) | Radioactivity in tissue (Fat (brown), 0.5 Hour): 996 ng Equivalents test article/g | Radioactivity in tissue (Fat (brown), 1 Hour): BLQ (BLQ: Below limit of quantitation (<320 ng equivalents test article/g).) | Radioactivity in tissue (Fat (brown), 2 Hours): BLQ (BLQ: Below limit of quantitation (<320 ng equivalents test article/g).) | Radioactivity in tissue (Fat (brown), 4 Hours): BLQ (BLQ: Below limit of quantitation (<320 ng equivalents test article/g).) | Radioactivity in tissue (Fat (brown), 8 Hours): BLQ (BLQ: Below limit of quantitation (<320 ng equivalents test article/g).) | Radioactivity in tissue (Fat (brown), 24 Hours): BLQ (BLQ: Below limit of quantitation (<320 ng equivalents test article/g).) | Radioactivity in tissue (Fat (white), 0.5 Hour): BLQ (BLQ: Below limit of quantitation (<320 ng equivalents test article/g).) | Radioactivity in tissue (Fat (white), 1 Hour): BLQ (BLQ: Below limit of quantitation (<320 ng equivalents test article/g).) | Radioactivity in tissue (Fat (white), 2 Hours): BLQ (BLQ: Below limit of quantitation (<320 ng equivalents test article/g).) | Radioactivity in tissue (Fat (white), 4 Hours): 348 ng Equivalents test article/g | Radioactivity in tissue (Fat (white), 8 Hours): BLQ (BLQ: Below limit of quantitation (<320 ng equivalents test article/g).) | Radioactivity in tissue (Fat (white), 24 Hours): BLQ (BLQ: Below limit of quantitation (<320 ng equivalents test article/g).) | Radioactivity in tissue (Harderian gland, 0.5 Hour): BLQ (BLQ: Below limit of quantitation (<320 ng equivalents test article/g).) | Radioactivity in tissue (Harderian gland, 1 Hour): 1983 ng Equivalents test article/g | Radioactivity in tissue (Harderian gland, 2 Hours): 1478 ng Equivalents test article/g | Radioactivity in tissue (Harderian gland, 4 Hours): BLQ (BLQ: Below limit of quantitation (<320 ng equivalents test article/g).) | Radioactivity in tissue (Harderian gland, 8 Hours): BLQ (BLQ: Below limit of quantitation (<320 ng equivalents test article/g).) | Radioactivity in tissue (Harderian gland, 24 Hours): BLQ (BLQ: Below limit of quantitation (<320 ng equivalents test article/g).) | Radioactivity in tissue (Kidney, 0.5 Hour): 3154 ng Equivalents test article/g | Radioactivity in tissue (Kidney, 1 Hour): 3060 ng Equivalents test article/g | Radioactivity in tissue (Kidney, 2 Hours): 2704 ng Equivalents test article/g | Radioactivity in tissue (Kidney, 4 Hours): 2075 ng Equivalents test article/g | Radioactivity in tissue (Kidney, 8 Hours): 2031 ng Equivalents test article/g | Radioactivity in tissue (Kidney, 24 Hours): 1120 ng Equivalents test article/g | Radioactivity in tissue (Lacrimal gland (Ex-orbital), 0.5 Hour): BLQ (BLQ: Below limit of quantitation (<320 ng equivalents test article/g).) | Radioactivity in tissue (Lacrimal gland (Ex-orbital), 1 Hour): 1557 ng Equivalents test article/g | Radioactivity in tissue (Lacrimal gland (Ex-orbital), 2 Hours): 1655 ng Equivalents test article/g | Radioactivity in tissue (Lacrimal gland (Ex-orbital), 4 Hours): 1993 ng Equivalents test article/g | Radioactivity in tissue (Lacrimal gland (Ex-orbital), 8 Hours): 1388 ng Equivalents test article/g | Radioactivity in tissue (Lacrimal gland (Ex-orbital), 24 Hours): BLQ (BLQ: Below limit of quantitation (<320 ng equivalents test article/g).) | Radioactivity in tissue (Lacrimal gland (Intra-orbital), 0.5 Hour): BLQ (BLQ: Below limit of quantitation (<320 ng equivalents test article/g).) | Radioactivity in tissue (Lacrimal gland (Intra-orbital), 1 Hour): 2323 ng Equivalents test article/g | Radioactivity in tissue (Lacrimal gland (Intra-orbital), 2 Hours): 1355 ng Equivalents test article/g | Radioactivity in tissue (Lacrimal gland (Intra-orbital), 4 Hours): BLQ (BLQ: Below limit of quantitation (<320 ng equivalents test article/g).) | Radioactivity in tissue (Lacrimal gland (Intra-orbital), 8 Hours): BLQ (BLQ: Below limit of quantitation (<320 ng equivalents test article/g).) | Radioactivity in tissue (Lacrimal gland (Intra-orbital), 24 Hours): BLQ (BLQ: Below limit of quantitation (<320 ng equivalents test article/g).) | Radioactivity in tissue (Large intestinal contents, 0.5 Hour): BLQ (BLQ: Below limit of quantitation (<320 ng equivalents test article/g).) | Radioactivity in tissue (Large intestinal contents, 1 Hour): 519 ng Equivalents test article/g | Radioactivity in tissue (Large intestinal contents, 4 Hours): 810 ng Equivalents test article/g | Radioactivity in tissue (Large intestinal contents, 8 Hours): 593 ng Equivalents test article/g | Radioactivity in tissue (Large intestinal contents, 24 Hours): BLQ (BLQ: Below limit of quantitation (<320 ng equivalents test article/g).) | Radioactivity in tissue (Large intestine, 0.5 Hour): BLQ (BLQ: Below limit of quantitation (<320 ng equivalents test article/g).) | Radioactivity in tissue (Large intestine, 1 Hour): 1787 ng Equivalents test article/g | Radioactivity in tissue (Large intestine, 2 Hours): 1716 ng Equivalents test article/g | Radioactivity in tissue (Large intestine, 4 Hours): 1361 ng Equivalents test article/g | Radioactivity in tissue (Large intestine, 8 Hours): BLQ (BLQ: Below limit of quantitation (<320 ng equivalents test article/g).) | Radioactivity in tissue (Large intestine, 24 Hours): BLQ (BLQ: Below limit of quantitation (<320 ng equivalents test article/g).) | Radioactivity in tissue (Liver, 0.5 Hour): 2431 ng Equivalents test article/g | Radioactivity in tissue (Liver, 1 Hour): 3607 ng Equivalents test article/g | Radioactivity in tissue (Liver, 2 Hours): 2005 ng Equivalents test article/g | Radioactivity in tissue (Liver, 4 Hours): 1561 ng Equivalents test article/g | Radioactivity in tissue (Liver, 8 Hours): 1190 ng Equivalents test article/g
